We go through 10 compounds from patent US20070072874A1, “Aminoheteroaryl compounds as protein kinase inhibitors” (Sugen, Inc., priority 2003, published 2007).

The target in this experiment is T1, GST fusion protein containing the Met kinase domain (Homo sapiens, UniProt P08581).
T1 construct: Purified GST fusion protein containing the Met kinase domain, SUGEN, Inc
T1 sequence (P08581 1078-1345 limits assumed): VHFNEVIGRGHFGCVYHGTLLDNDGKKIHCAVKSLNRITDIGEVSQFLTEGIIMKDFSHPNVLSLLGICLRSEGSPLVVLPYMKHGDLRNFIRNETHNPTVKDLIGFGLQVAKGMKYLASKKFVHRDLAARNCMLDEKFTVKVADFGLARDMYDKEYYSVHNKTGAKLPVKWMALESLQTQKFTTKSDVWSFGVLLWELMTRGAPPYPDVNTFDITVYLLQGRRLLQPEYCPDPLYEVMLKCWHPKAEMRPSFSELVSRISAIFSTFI
As to the kind of experiment: MET transphosphorylation assay (ELISA, poly(glu-tyr) substrate). Type of experiment: biochemical.
Method: MET Transphosphorylation Assay
This assay is used to measure phosphotyrosine levels on a poly(glutamic acid:tyrosine, 4:1) substrate as a means for identifying agonists/antagonists of met transphosphorylation of the substrate.
Purified GST fusion protein containing the Met kinase domain, SUGEN, Inc.
10% aqueous (MilliQue H2O) DMSO.
2× Kinase Dilution Buffer: for 100 mL, mix 10 mL 1M HEPES at pH 7.5 with 0.4 mL 5% BSA/PBS, 0.2 mL 0.1 M sodium orthovanadate and 1 mL 5M sodium chloride in 88.4 mL dH2O.
4× ATP Reaction Mixture: for 10 mL, mix 0.4 mL 1 M manganese chloride and 0.02 mL 0.1 M ATP in 9.56 mL dH2O.
4× Negative Controls Mixture: for 10 mL, mix 0.4 mL 1 M manganese chloride in 9.6 mL dH2O.
Antibody Dilution Buffer: for 100 mL, mix 10 mL 5% BSA/PBS, 0.5 mL 5% Carnation® Instant Milk in PBS and 0.1 mL 0.1 M sodium orthovanadate in 88.4 mL TBST.
Rabbit polyclonal antophosphotyrosine antibody, SUGEN, Inc.
Goat anti-rabbit horseradish peroxidase conjugated antibody, Biosource, Inc.
ABTS Solution: for 1 L, mix 19.21 g citric acid, 35.49 g Na2HPO4 and 500 mg ABTS with sufficient dH2O to make 1 L.
ABTS/H2O2: mix 15 mL ABST solution with 2 μL H2O2 five minutes before use.
Coat ELISA plates with 2 μg Poly(Glu-Tyr) in 100 μL PBS, hold-overnight at 4° C.
Block plate with 150 μL of 5% BSA/PBS for 60 min.
Wash plate twice with PBS then once with 50 mM Hepes buffer pH 7.4.
Add 50 μl of the diluted kinase to all wells. (Purified kinase is diluted with Kinase Dilution Buffer. Final concentration should be 10 ng/well.)
Add 25 μL of the test compound (in 4% DMSO) or DMSO alone (4% in dH2O) for controls to plate.
Incubate the kinase/compound mixture for 15 minutes.
Add 25 μL of 40 mM MnCl2 to the negative control wells.
Add 25 μL ATP/MnCl2 mixture to the all other wells (except the negative controls). Incubate for 5 min.
Add 25 μL 500 mM EDTA to stop reaction.
Add 100 μL rabbit polyclonal anti-Ptyr diluted 1:10,000 in Antibody Dilution Buffer to each well. Incubate, with shaking, at room temperature for one hour.
Add 100 μL per well and incubate at room temperature, with shaking, for one hour.
Add 100 μl of ABTS/H2O2 solution to each well.
If necessary, stop the development reaction with the addition of 100 μl of 0.2M HCl per well.
Turning to `CC(Oc1cc(-c2ccc(C(=O)N3CCC(N)CC3)cc2)cnc1N)c1c(Cl)ccc(F)c1Cl` (stereo not shown) [Example I-305, (4-{6-Amino-5-[1-(2,6-dichloro-3-fluoro-phenyl)-ethoxy]-pyridin-3-yl}-phenyl)-(4-amino-pipendin-1-yl)-methanone], the half-maximal inhibitory concentration (IC50) is 18 nM.

Take `CC(Oc1cc(-c2ccc(C(=O)N3CCC(N4CCCC4)CC3)cc2)cnc1N)c1c(F)ccc(F)c1Cl` (stereo not shown) [Example I-339, (4-{6-Amino-5-[1-(2-chloro-3,6-difluoro-phenyl)-ethoxy]-pyridin-3-yl}-phenyl)-(4-pyrrolidin-1-yl-piperidin-1-yl)-methanone]: half-maximal inhibition (IC50) required 62 nM.

Consider `CN(C)CCS(=O)(=O)Nc1cccc(-c2cnc(N)c(OCc3c(F)ccc(F)c3Cl)c2)c1` [Example I-259, 2-Dimethylamino-ethanesulfonic acid {3-[6-amino-5-(2-chloro-3,6-difluoro-benzyloxy)-pyridin-3-yl]-phenyl}-amide], for which 1500 nM corresponded to half-maximal inhibition (IC50).

Take `Nc1ncc(-c2cccnc2)cc1OCc1ccccc1` [Example I-489, 5-Benzyloxy-[3,3′]bipyridinyl-6-ylamine]: the concentration for half-maximal inhibition (IC50) is > 20000 nM.

Consider `CN(C)[C@H]1CCN(C(=O)c2cccc(-c3cnc(N)c(OCc4c(F)ccc(F)c4Cl)n3)c2)C1` [II-54, {3-[5-Amino-6-(2-chloro-3,6-difluoro-benzyloxy)-pyrazin-2-yl]-phenyl}-[(3S)-3-dimethylamino-pyrrolidin-1-yl]-methanone], for which the half-maximal inhibitory concentration (IC50) amounted to 1450 nM.

Regarding `CC(Oc1cc(C#CCNC(=O)CN2CCCC2)cnc1N)c1c(Cl)ccc(F)c1Cl` (stereo not shown) [Example I-426, N-(3-{6-Amino-5-[1-(2,6-dichloro-3-fluoro-phenyl)-ynyl)-2-pridin-1-y-ehoxy]-pyridin-3-yf}-prop-2-acetamide], the half-maximal inhibitory concentration (IC50) is < 9.1 nM.

In the case of `CC(Oc1cc(-c2ccc(C(=O)N3CCN(C)CC3)cn2)cnc1N)c1c(F)ccc(F)c1Cl` (stereo not shown) [Example I-517, {6′-Amino-5′-[1-(2-chloro-3,6-difluoro-phenyl)-ethoxy]-[2,3′]bipyridinyl-5-yl)-(4-methyl-piperazin-1-yl)-methanone], the concentration for half-maximal inhibition (IC50) was determined as 131 nM.

The compound `Nc1ncc(-c2cccnc2)cc1OCc1c(F)ccc(F)c1Cl` [Example I-501, 5-(2-Chloro-3,6-difluoro-benzyloxy)-[3,3′]bipyridinyl-6-ylamine] gave a half-inhibitory concentration (IC50) of 282 nM.

Regarding `CC(Oc1cc(-c2ccc(OCCC3CCCN3C)cc2)cnc1N)c1c(Cl)ccc(F)c1Cl` (stereo not shown) [Example I-356, 3-[1-(2,6-Dichloro-3-fluoro-phenyl)-ethoxy]-5-{4-(2-[1-methyl-pyrrolidin-2-yl)-ethoxy]-phenyl)-pyridin-2-ylamine], the half-inhibitory concentration (IC50) was 790 nM.

The compound `Nc1ncc(-c2ccc(NS(=O)(=O)CCNC3CC3)cc2)nc1OCc1c(F)ccc(F)c1Cl` [II-20, 2-Cyclopropylamino-ethanesulfonic acid {4-[5-amino-6-(2-chloro-3,6-difluoro-benzyloxy)-pyrazin-2-yl]-phenyl}-amide] displayed an IC50 of 1200 nM.
